The text below walks through data of patent publication US7083809B2, “Purified cytokine inhibitory factor” (Arkion Life Sciences, LLC, priority 2002, dated 2006).

For one assay, the system named is murine macrophage. Conditions: cited from earlier work.
For assay [1] the following is noted: 20 cancer patients, intravenous pretreatment followed by intravenous endotoxin; cited from earlier work.
A further assay relates to PGE2 biosynthesis. Briefly: Inhibition of PGE2 biosynthesis in LPS-stimulated RAW 264.7 cells (EIA). The format is cell-based, mouse.
The test system of another assay is IL-1β. Briefly: LPS-induced cytokine mRNA inhibition assay in THP1 monocytes (RT-PCR). It is filed as cell-based, human. Conditions: THP1 cells.
Another assay has as its system TNF-α. The assay is described as above. The format is cell-based, human. The conditions noted are these: THP1 cells, culture medium.

Protocol for PGE2 biosynthesis: The assay began with overnight induction of COX-2 through mitogenic (LPS) stimulation of RAW 264.7 cell monolayers. The cell monolayers were then exposed to a test article (e.g. indomethacin) for 30 min at 37° C., and then an exogenous source of arachidonic acid was provided to the system. COX1 and COX2 (in addition to a PGE2 specific synthetase) converted the exogenous arachidonic acid to PGE2. Prostaglandin E2 in the culture medium was then quantified by a commercial EIA system. When less PGE2 was recovered from culture medium containing a test article than was recovered from culture medium alone, the condition was labeled inhibition.
Assay procedure: 5×10^6 Cells in DMEM medium were seeded and incubated in a 37° C., 5% CO2 incubator overnight. At approximately 24 h growth of cells seeded on day 1 (usually 90–100% confluence), growth medium was aseptically decanted and discarded. 10 ml sterile PBSA was gently pipetted into flasks against a non-growth surface, and the cells were washed twice. 10 ml DMEM containing LPS (2 ng/ml) was added to the tested flasks. Flasks were placed in a 37° C., 5% CO2 incubator overnight for 16 h.
At 16 h post-initial LPS exposure, growth medium was aseptically removed (suction) and discarded. 10 ml sterile PBSA was gently pipetted into flasks against a non-growth surface, and the cells were washed twice. Cells were incubated in the presence of 2 ml PBSA, 2 ml positive control drugs, or 2 ml yolk lipids sample (1.0 mg/ml) at 37° C. After 30 min incubation, 222 μl of 300 ΞM arachidonic acid was added to every flask. Cells were incubated for an additional 15 min at 37° C. in presence of the 30 μM arachidonic acid. After the 15 min incubation, 50 μl of 1 mg/ml indomethacin was added to contents of flask to stop the reaction. All fluids from flasks were collected into appropriately labeled polypropylene tubes.
Prostaglandin E2 was assayed with the commercial ELISA kit (Amersham RPN222) at room temperature following the standard protocol.

With `CCCCCCCCCCCCCC(=O)N[C@H]1[C@H](OC[C@H]2O[C@H](OC(CC(=O)O)CC(=O)O)[C@H](NC(=O)CCCCCCCCCCCCC)[C@@H](OC(=O)CNC(=O)CCCCCCCCCCC)[C@@H]2O)O[C@H](CO)[C@@H](OP(=O)(O)O)[C@@H]1OC(=O)CNC(=O)CCCCCCCCCCC` [DT-5461a], the “Induction of TNF-α, IL-1β, IL-6, and GM-CSF” value in the assay with murine macrophage is “induces”. `CCCCCCCCCCC[C@@H](O)CC(=O)N[C@H]1[C@@H](OP(=O)(O)O)O[C@H](CO)[C@@H](OC(=O)C[C@H](O)CCCCCCCCCCC)[C@@H]1OC(=O)C[C@H](O)CCCCCCCCCCC` [SDZ MRL 953]: the “Release of TNF-α, IL-1β, IL-8, IL-6, and G-CSF” value in assay [1] is “markedly reduced”. Regarding `CC(=O)Oc1ccccc1C(=O)O` [aspirin], the “Inhibition of PGE2 biosynthesis in cells (in words)” value (shortened to “Inhibition of PGE2 biosynthesis”) in the assay on PGE2 biosynthesis is reported as “inhibited”.

Take `CC(C)Cc1ccc(C(C)C(=O)O)cc1` (stereo not shown) [ibuprofen]: the “Inhibition of PGE2 biosynthesis” value in the assay on PGE2 biosynthesis was “inhibited”. As for `COc1ccc2c(c1)c(CC(=O)O)c(C)n2C(=O)c1ccc(Cl)cc1` [indomethacin], the “Inhibition of PGE2 biosynthesis” value in the assay with PGE2 biosynthesis is “inhibited”. Consider lipopolysaccharide [LPS], for which the “LPS concentration able to induce IL-1b” value with IL-1β stood at 0.008 mg/mL. For the same molecule, in the assay on TNF-α, the “LPS concentration of maximum induction for TNFa” value is “around 0.2 mg/ml”.
